Read-outs that look alike come from different tables or passages of the source.
Target: BRAF V600E (Homo sapiens, UniProt P15056, V600E)
Test: HiBiT cellular BRAF^V600E degradation assay
Assay type: cell-based
Details: for DC50: concentration at which 50% of total cellular BRAF^V600E is degraded; for Emax: read-out: HiBit 24 h Emax
[1] = A375.10 cells, 24 h, residual protein remaining in the cell

BRAF V600E, sequence (P15056 whole entry V600E): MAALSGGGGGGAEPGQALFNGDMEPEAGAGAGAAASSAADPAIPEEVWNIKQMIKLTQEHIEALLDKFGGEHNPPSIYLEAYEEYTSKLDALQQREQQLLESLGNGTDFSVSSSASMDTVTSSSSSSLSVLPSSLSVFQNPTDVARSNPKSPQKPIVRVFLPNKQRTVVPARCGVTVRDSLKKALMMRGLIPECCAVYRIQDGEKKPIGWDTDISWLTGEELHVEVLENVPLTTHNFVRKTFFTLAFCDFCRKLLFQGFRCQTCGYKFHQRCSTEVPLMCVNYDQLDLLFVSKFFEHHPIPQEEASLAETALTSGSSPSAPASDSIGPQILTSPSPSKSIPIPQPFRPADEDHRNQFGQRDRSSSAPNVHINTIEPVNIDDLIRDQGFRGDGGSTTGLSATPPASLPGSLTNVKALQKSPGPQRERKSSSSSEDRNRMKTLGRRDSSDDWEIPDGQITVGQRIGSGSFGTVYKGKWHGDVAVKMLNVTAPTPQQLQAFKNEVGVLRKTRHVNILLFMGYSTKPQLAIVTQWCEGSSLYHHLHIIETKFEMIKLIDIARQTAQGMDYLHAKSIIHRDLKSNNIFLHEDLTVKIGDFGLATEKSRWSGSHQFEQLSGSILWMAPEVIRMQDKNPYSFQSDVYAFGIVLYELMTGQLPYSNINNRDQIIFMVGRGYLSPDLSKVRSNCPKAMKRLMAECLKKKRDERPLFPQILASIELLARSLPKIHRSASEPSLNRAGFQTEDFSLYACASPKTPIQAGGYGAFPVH

Row | Structure (SMILES) | DC50 (A375.10 cells, 24 h) | Emax [1] | Emax
1 | CCN(C)S(=O)(=O)Nc1ccc(F)c(Oc2ccc3ncn(CCCC4CCN(C(=O)CN5CCC(c6ccc(NC7CCC(=O)NC7=O)cc6)CC5)CC4)c(=O)c3c2)c1C#N (centres unmarked) [Example 4, 6-[2-cyano-3-[[ethyl(methyl)sulfamoyl]amino]-6-fluorophenoxy]-3-[3-[1-[2-[4-[4-[(2,6-dioxopiperidin-3-yl)amino]phenyl]piperidin-1-yl]acetyl]piperidin-4-yl]propyl]-4-oxoquinazoline] | 28.6 nM | 10.8% | 
2 | CCN(C)S(=O)(=O)Nc1ccc(F)c(Oc2ccc3ncn(CCCC4CCN(C(=O)CN5CCC(c6ccc(C7CCC(=O)NC7=O)cc6F)CC5)CC4)c(=O)c3c2)c1C#N (centres unmarked) [Example 5, 6-[2-cyano-3-[[ethyl(methyl)sulfamoyl]amino]-6-fluorophenoxy]-3-[3-[1-[2-[4-[4-(2,6-dioxopiperidin-3-yl)-2-fluorophenyl]piperidin-1-yl]acetyl]piperidin-4-yl]propyl]-4-oxoquinazoline] | 49.3 nM | 13.1% | 
3 | CCN(C)S(=O)(=O)Nc1ccc(F)c(Oc2ccc3ncn(CCCC4CCN(CC(=O)N5CCC(c6ccc(NC7CCC(=O)NC7=O)cc6)CC5)CC4)c(=O)c3c2)c1C#N (centres unmarked) [Example 7, 6-[2-cyano-3-[[ethyl(methyl)sulfamoyl]amino]-6-fluorophenoxy]-3-[3-[1-[2-[4-[4-[(2,6-dioxopiperidin-3-yl)amino]phenyl]piperidin-1-yl]-2-oxoethyl]piperidin-4-yl]propyl]-4-oxoquinazoline] | 42.2 nM | 15.2% | 
4 | CCN(C)S(=O)(=O)Nc1ccc(F)c(Oc2ccc3ncn(CCN4CCN(C(=O)CN5CCC(c6ccc(NC7CCC(=O)NC7=O)cc6)CC5)CC4)c(=O)c3c2)c1C#N (centres unmarked) [Example 9, 6-[2-cyano-3-[[ethyl(methyl)sulfamoyl]amino]-6-fluorophenoxy]-3-[2-[4-[2-[4-[4-[(2,6-dioxopiperidin-3-yl)amino]phenyl]piperidin-1-yl]acetyl]piperazin-1-yl]ethyl]-4-oxoquinazoline] | 41.9 nM | 9.87% | 
5 | CCN(C)S(=O)(=O)Nc1ccc(F)c(Oc2ccc3ncn(CCCC4(C)CCN(C(=O)CN5CCC(c6ccc(NC7CCC(=O)NC7=O)cc6F)CC5)CC4)c(=O)c3c2)c1C#N (centres unmarked) [Example 12, 6-[2-cyano-3-[[ethyl(methyl)sulfamoyl]amino]-6-fluorophenoxy]-3-[3-[1-[2-[4-[4-[(2,6-dioxopiperidin-3-yl)amino]-2-fluorophenyl]piperidin-1-yl]acetyl]-4-methylpiperidin-4-yl]propyl]-4-oxoquinazoline] | 29.2 nM | 8.33% | 
6 | CCN(C)S(=O)(=O)Nc1ccc(F)c(Oc2ccc3ncn(CC(C)CC4CCN(C(=O)CN5CCC(c6ccc(NC7CCC(=O)NC7=O)cc6F)CC5)CC4)c(=O)c3c2)c1C#N (centres unmarked) [Example 14, 6-[2-cyano-3-[[ethyl(methyl)sulfamoyl]amino]-6-fluorophenoxy]-3-[3-[1-[2-[4-[4-[(2,6-dioxopiperidin-3-yl)amino]-2-fluorophenyl]piperidin-1-yl]acetyl]piperidin-4-yl]-2-methylpropyl]-4-oxoquinazoline] | 12.5 nM |  | 8.11%
7 | CCN(C)S(=O)(=O)Nc1ccc(F)c(Oc2ccc3ncn(CCCC4(F)CCN(C(=O)CN5CCC(c6ccc(NC7CCC(=O)NC7=O)cc6F)CC5)CC4)c(=O)c3c2)c1C#N (centres unmarked) [Example 15, 6-[2-cyano-3-[[ethyl(methyl)sulfamoyl]amino]-6-fluorophenoxy]-3-[3-[1-[2-[4-[4-[(2,6-dioxopiperidin-3-yl)amino]-2-fluorophenyl]piperidin-1-yl]acetyl]-4-fluoropiperidin-4-yl]propyl]-4-oxoquinazoline] | 11.1 nM | 7.29% | 
8 | CCN(C)S(=O)(=O)Nc1ccc(F)c(Oc2ccc3ncn(-c4cnn(C5CCN(C(=O)CN6CCC(c7ccc(NC8CCC(=O)NC8=O)c(F)c7)CC6)CC5)c4)c(=O)c3c2)c1C#N (centres unmarked) [Example 19, 6-[2-cyano-3-[[ethyl(methyl)sulfamoyl]amino]-6-fluorophenoxy]-3-[1-[1-[2-[4-[4-[(2,6-dioxopiperidin-3-yl)amino]-3-fluorophenyl]piperidin-1-yl]acetyl]piperidin-4-yl]pyrazol-4-yl]-4-oxoquinazoline] | 42.3 nM |  | 20.6%

The next lines start with results.

Row | DC50 (A375.10 cells, 24 h) | Emax [1] | Structure (SMILES) | Emax
9 | 22.7 nM | 11.5% | CCN(C)S(=O)(=O)Nc1ccc(F)c(Oc2ccc3ncn(CCCC4CCN(C(=O)CN5CCC(c6ccc(NC7CCC(=O)NC7=O)cc6F)CC5)CC4)c(=O)c3c2)c1C#N (centres unmarked) [Example 6, 6-[2-cyano-3-[[ethyl(methyl)sulfamoyl]amino]-6-fluorophenoxy]-3-[3-[1-[2-[4-[4-[(2,6-dioxopiperidin-3-yl)amino]-2-fluorophenyl]piperidin-1-yl]acetyl]piperidin-4-yl]propyl]-4-oxoquinazoline] | 
10 | 27.9 nM | 10% | CCN(C)S(=O)(=O)Nc1ccc(F)c(Oc2ccc3ncn(CCN4CCN(C(=O)CN5CCC(c6ccc(NC7CCC(=O)NC7=O)cc6F)CC5)CC4)c(=O)c3c2)c1C#N (centres unmarked) [Example 8, 6-[2-cyano-3-[[ethyl(methyl)sulfamoyl]amino]-6-fluorophenoxy]-3-[2-[4-[2-[4-[4-[(2,6-dioxopiperidin-3-yl)amino]-2-fluorophenyl]piperidin-1-yl]acetyl]piperazin-1-yl]ethyl]-4-oxoquinazoline] | 
11 | 41.9 nM | 12.6% | CCN(C)S(=O)(=O)Nc1ccc(F)c(Oc2ccc3ncn(C(C)CCC4CCN(C(=O)CN5CCC(c6ccc(NC7CCC(=O)NC7=O)cc6F)CC5)CC4)c(=O)c3c2)c1C#N (centres unmarked) [Example 10, 6-[2-cyano-3-[[ethyl(methyl)sulfamoyl]amino]-6-fluorophenoxy]-3-[4-[1-[2-[4-[4-[(2,6-dioxopiperidin-3-yl)amino]-2-fluorophenyl]piperidin-1-yl]acetyl]piperidin-4-yl]butan-2-yl]-4-oxoquinazoline] | 
12 | 10.1 nM | 9.52% | CCN(C)S(=O)(=O)Nc1ccc(F)c(Oc2ccc3ncn(CCC(C)C4CCN(C(=O)CN5CCC(c6ccc(NC7CCC(=O)NC7=O)cc6F)CC5)CC4)c(=O)c3c2)c1C#N (centres unmarked) [Example 11, 6-[2-cyano-3-[[ethyl(methyl)sulfamoyl]amino]-6-fluorophenoxy]-3-[3-[1-[2-[4-[4-[(2,6-dioxopiperidin-3-yl)amino]-2-fluorophenyl]piperidin-1-yl]acetyl]piperidin-4-yl]butyl]-4-oxoquinazoline] | 
13 | 26.2 nM | 8.27% | CCN(C)S(=O)(=O)Nc1ccc(F)c(Oc2ccc3ncn(CCC4(F)CCN(C(=O)CN5CCC(c6ccc(NC7CCC(=O)NC7=O)cc6F)CC5)CC4)c(=O)c3c2)c1C#N (centres unmarked) [Example 13, 6-[2-cyano-3-[[ethyl(methyl)sulfamoyl]amino]-6-fluorophenoxy]-3-[2-[1-[2-[4-[4-[(2,6-dioxopiperidin-3-yl)amino]-2-fluorophenyl]piperidin-1-yl]acetyl]-4-fluoropiperidin-4-yl]ethyl]-4-oxoquinazoline] | 
14 | 20.5 nM | 15.5% | CCN(C)S(=O)(=O)Nc1ccc(F)c(Oc2ccc3ncn(-c4cnn(C5CCN(C(=O)CN6CCC(c7ccc(NC8CCC(=O)NC8=O)cc7F)CC6)CC5)c4)c(=O)c3c2)c1C#N (centres unmarked) [Example 16, 6-[2-cyano-3-[[ethyl(methyl)sulfamoyl]amino]-6-fluorophenoxy]-3-[1-[1-[2-[4-[4-[(2,6-dioxopiperidin-3-yl)amino]-2-fluorophenyl]piperidin-1-yl]acetyl]piperidin-4-yl]pyrazol-4-yl]-4-oxoquinazoline] | 
15 | 44 nM | 20.7% | CCN(C)S(=O)(=O)Nc1ccc(F)c(Oc2ccc3ncn(-c4cnn(C5CCN(C(=O)CN6CCC(c7ccc(C8CCC(=O)NC8=O)cc7F)CC6)CC5)c4)c(=O)c3c2)c1C#N (centres unmarked) [Example 17, 6-[2-cyano-3-[[ethyl(methyl)sulfamoyl]amino]-6-fluorophenoxy]-3-[1-[1-[2-[4-[4-(2,6-dioxopiperidin-3-yl)-2-fluorophenyl]piperidin-1-yl]acetyl]piperidin-4-yl]pyrazol-4-yl]-4-oxoquinazoline] | 
16 | 30.7 nM | 18.5% | CCN(C)S(=O)(=O)Nc1ccc(F)c(Oc2ccc3ncn(-c4cnn(C5CCN(C(=O)CN6CCC(c7ccc(NC8CCC(=O)NC8=O)cc7)CC6)CC5)c4)c(=O)c3c2)c1C#N (centres unmarked) [Example 18, 6-[2-cyano-3-[[ethyl(methyl)sulfamoyl]amino]-6-fluorophenoxy]-3-[1-[1-[2-[4-[4-[(2,6-dioxopiperidin-3-yl)amino]phenyl]piperidin-1-yl]acetyl]piperidin-4-yl]pyrazol-4-yl]-4-oxoquinazoline] | 
17 | 14.4 nM | 17.7% | CCN(C)S(=O)(=O)Nc1ccc(F)c(Oc2ccc3ncn(-c4cnn(C5CCN(C(=O)CN6CCC(c7c(F)cc(NC8CCC(=O)NC8=O)cc7F)CC6)CC5)c4)c(=O)c3c2)c1C#N (centres unmarked) [Example 20, 6-[2-cyano-3-[[ethyl(methyl)sulfamoyl]amino]-6-fluorophenoxy]-3-[1-[1-[2-[4-[4-[(2,6-dioxopiperidin-3-yl)amino]-2,6-difluorophenyl]piperidin-1-yl]acetyl]piperidin-4-yl]pyrazol-4-yl]-4-oxoquinazoline] | 
18 | 34.3 nM | 19.6% | CCN(C)S(=O)(=O)Nc1ccc(F)c(Oc2ccc3ncn(-c4cnn(C5CCN(CC(=O)N6CCC(c7ccc(NC8CCC(=O)NC8=O)cc7)CC6)CC5)c4)c(=O)c3c2)c1C#N (centres unmarked) [Example 21, 6-[2-cyano-3-[[ethyl(methyl)sulfamoyl]amino]-6-fluorophenoxy]-3-[1-[1-[2-[4-[4-[(2,6-dioxopiperidin-3-yl)amino]phenyl]piperidin-1-yl]-2-oxoethyl]piperidin-4-yl]pyrazol-4-yl]-4-oxoquinazoline] | 
19 | 11.2 nM | 11.5% | CCN(C)S(=O)(=O)Nc1ccc(F)c(Oc2ccc3ncn(C4CC5(CCN(C(=O)CN6CCC(c7ccc(NC8CCC(=O)NC8=O)cc7F)CC6)CC5)C4)c(=O)c3c2)c1C#N (centres unmarked) [Example 22, 6-[2-cyano-3-[[ethyl(methyl)sulfamoyl]amino]-6-fluorophenoxy]-3-[7-[2-[4-[4-[(2,6-dioxopiperidin-3-yl)amino]-2-fluorophenyl]piperidin-1-yl]acetyl]-7-azaspiro[3.5]nonan-2-yl]-4-oxoquinazoline] | 

Source: patent US12486253B2, “Therapeutics for the degradation of mutant BRAF” (C4 THERAPEUTICS, INC., priority 2021, dated 2025)
